Assay results reported in patent publication US11299480B2, “2-arylsulfonamido-N-arylacetamide derivatized STAT3 inhibitors” (University of Hawaii, priority 2017, dated 2022).
“Also recorded” adds a separate entry of the source. One block for each compound: values may come before it.

Assays:
1205LU = assay: Cell viability, 1205LU metastatic melanoma cells; assay type: cell-based, human; conditions: 48 h, 10 and 20 micromolar
Procedure: (§1) FIG. 5. Effects of select compounds of the present invention on cell viability, growth, colony survival and migration in vitro. […] Cell numbers were counted by trypan blue exclusion/phase-contrast microscopy every […], and cell growth curve was plotted.
(§2) Cells in 6-well or 96-well plates were treated with or without compounds for the indicated concentrations and time, and subjected to MTT assay or CyQuant cell proliferation assay (Invitrogen/ThermoFisher Scientific), or harvested and the viable cells were counted by trypan blue exclusion with phase-contrast microscopy.
(§3) Constitutive Stat3 activity promotes tumor cell growth and proliferation and survival (Darnell J E (2005) Nat Med. 11:595-6; Bowman T, et al., (2000) Oncogene 19:2474-2488). Some of the compounds of the present invention were tested against tumor cells harboring constitutively-active Stat3.

pY705Stat3 [1] = assay: Constitutive Stat3 Tyr705 phosphorylation, immunoblot, UACC903 metastatic melanoma cells; assay type: cell-based, human; conditions: UACC903, 10 or 20 μM for 1 and 3 h
Procedure: (§4) FIG. 3. Effects of select compounds of the present invention on Stat3 DNA-binding activity and Stat3 tyrosine phosphorylation in cells. (FIG. 3A) EMSA analysis of Stat3 DNA-binding activity in nuclear extracts of equal total protein prepared from cells treated with DMSO (0 as control, Con), 5 or 10 μM of compounds for 1-34 h. Positions of Stat3:DNA complexes in gel are labeled. […] Positions of Stat3:DNA complexes or proteins in gel are shown; control (0 or Con) lane represents whole-cell lysates or nuclear extracts prepared from 0.05% DMSO-treated cells. […] Data are representative of 2-3 independent determinations.
(§5) All antibodies tested were purchased from Cell Signaling Technology.
(§6) Altogether, the new analogs show strong, albeit variable degrees of inhibition of constitutive Stat3 DNA-binding activity and Tyr phosphorylation in human tumor cells.

C81-61 = assay: Cell viability, C81-61 melanoma cells; assay type: cell-based, human; conditions: C81-61, 48 h, 10 and 20 micromolar
Procedure: as §1, §2, §3

MDA-MB-468 = assay: CyQuant cell viability assay, MDA-MB-468; assay type: cell-based, human; conditions: MDA-MB-468, CyQuant, 0-10 μM, 72 h
Procedure: (§7) FIG. 6. Effects of select compounds of the present invention on cell viability. […] Cells were first grown in 6-well plates then were treated once with 0-10 μM of the indicated compounds for 72 h. Viable cells were assayed using CyQuant cell proliferation kit and plotted as % cell viability against concentration. Control (0) represents 0.05% DMSO-treated cells. Values, mean ± S.D. of 2-3 independent determinations.
as §2, §3

Stat5 = Stat5 DNA-binding activity in vitro, EMSA (MGFe probe); assay type: biochemical; conditions: 10 μM or 0-30 μM compound
Description: FIG. 2. […] Positions of Stat:DNA complexes in gel are labeled; control lanes (0 or Con) represent nuclear extracts pre-treated with 10% DMSO. […] Where appropriate, bands corresponding to Stat3:DNA complexes were scanned and quantified for each concentration of compound using ImageJ and plotted as percent of control (DMSO) against concentration of compound, from which the IC50 values were derived.

pY705Stat3 [2] = assay: Constitutive Stat3 tyrosine phosphorylation, immunoblot, MDA-MB-468 cells; assay type: cell-based, human
Procedure: as §4, §5, §6

Stat3 [3] = molecular target: Stat3 (Homo sapiens (Human), UniProt P40763); assay: Stat3 DNA-binding activity in nuclear extracts of treated MDA-MB-231 cells, EMSA; assay type: cell-based; conditions: 10 μM
Procedure: as §4
The ^32P-labeled oligonucleotide probes used were hSIE (high affinity sis-inducible element from the c-fos gene, m67 variant, 5′-[…]) (SEQ ID NO: 1) that binds Stat1 and Stat3 and MGFe (mammary gland factor element from the bovine β-casein gene promoter, 5′-[…]) (SEQ ID NO: 2) for Stat1 and Stat5 binding. Except where indicated, nuclear extracts were pre-incubated with compound for 30 min at room temperature prior to incubation with the radiolabeled probe for 30 min at 30° C. before subjecting to EMSA analysis. Where appropriate, bands corresponding to Stat3:DNA complexes were scanned and quantified for each concentration of compound using ImageJ and plotted as percent of control (DMSO) against concentration of compound, from which the IC50 values were derived.
Select compounds of the invention were investigated for their inhibitory effects of the active analogs on intracellular Stat3 signaling. […] Nuclear extracts were prepared and subjected to EMSA analysis for Stat3 DNA-binding activity. […] Stat3 DNA-binding activity in MDA-MB-231 cells was inhibited by both Examples 1 and 5 following treatment at 3 h, with little change at 1 h (FIG. 3A).

pY705Stat3 [4] = assay: Constitutive Stat3 tyrosine phosphorylation, immunoblot, MDA-MB-231 cells; assay type: cell-based, human
Procedure: as §4, §5, §6

pY705Stat3 [5] = assay: Constitutive Stat3 Tyr705 phosphorylation, immunoblot, 1205LU metastatic melanoma cells; assay type: cell-based, human; conditions: 10 or 20 μM for 1 and 3 h
Procedure: as §4, §5, §6

AR7119 = assay: Cell viability, immortalized normal melanocytes AR7119; assay type: cell-based, human; conditions: AR7119 (no aberrant Stat3 activation), 48 h
Procedure: as §1, §2, §3

MDA-MB-231 [6] = assay: CyQuant cell viability assay, MDA-MB-231; assay type: cell-based, human; conditions: MDA-MB-231, CyQuant, 0-10 μM, 72 h
Procedure: as §7, §2, §3

pY705Stat3 [7] = assay: Constitutive Stat3 Tyr705 phosphorylation, immunoblot, C8161 metastatic melanoma cells; assay type: cell-based, human; conditions: C8161, 10 or 20 μM for 1 and 3 h
Procedure: as §4, §5, §6

C8161 = assay: Cell viability, C8161 metastatic melanoma cells; assay type: cell-based, human; conditions: C8161, 48 h, 10 and 20 micromolar
Procedure: as §1, §2, §3

MEF/Stat3−/− = assay: Cell viability, Stat3 null mouse embryonic fibroblasts; assay type: cell-based; conditions: 48-72 h
Procedure: as §1, §2, §3

Stat1 = Stat1 DNA-binding activity in vitro, EMSA (MGFe probe); assay type: biochemical; conditions: for effect on Stat1 DNA-binding activity: 10 μM or 0-30 μM compound
Description: FIG. 2. Effects of select compounds of the present invention on Stat1 and Stat5 DNA-binding activity. […] Positions of Stat:DNA complexes in gel are labeled; control lanes (0 or Con) represent nuclear extracts pre-treated with 10% DMSO. Data are representative of 1-3 independent determinations. […] Where appropriate, bands corresponding to Stat3:DNA complexes were scanned and quantified for each concentration of compound using ImageJ and plotted as percent of control (DMSO) against concentration of compound, from which the IC50 values were derived. In order to determine the specificity of select new analogs active against Stat3 activity, the inventors investigated the effects on the inhibition of other STAT family members, including Stat1 and Stat5 DNA-binding activity in vitro.

pSrc = assay: Stat3-independent signaling, immunoblot of pSrc, MDA-MB-231 cells; assay type: cell-based, human; conditions: MDA-MB-231, 5 μM, 24 h treatment
Description: (§8) FIG. 4. Effects of select compounds of the present invention on Stat3-independent signal transduction events. […] Positions of proteins in gel are labeled; control lane (Con) represents whole-cell lysate prepared from 0.05% DMSO-treated cells.
as §5, §6

pERK1/2 = assay: Stat3-independent signaling, immunoblot of pERK1/2, MDA-MB-231 cells; assay type: cell-based, human; conditions: MDA-MB-231, 5 μM, 24 h treatment
Description: as §8, §5, §6

pJak2 = assay: Stat3-independent signaling, immunoblot of pJak2, MDA-MB-231 cells; assay type: cell-based, human; conditions: MDA-MB-231, 5 μM, 24 h treatment
Description: as §8, §5, §6

NIH3T3 mouse fibroblasts = assay: Cell growth, trypan blue exclusion/phase-contrast microscopy, NIH3T3; assay type: cell-based; conditions: NIH3T3 (no aberrantly-active Stat3), trypan blue exclusion, 72 h
Procedure: as §1, §2, §3

MDA-MB-231 [8] = assay: Cell growth, trypan blue exclusion/phase-contrast microscopy, MDA-MB-231; assay type: cell-based, human
Procedure: as §1, §2, §3

Stat3 [9] = molecular target: Stat3 (Mus musculus, UniProt P42227); assay type: biochemical; conditions: EMSA; read-out: IC50, inhibition of Stat3 DNA-binding activity in vitro
Procedure: FIG. 1. Effect of select compounds of the present invention on Stat3 DNA-binding activity in vitro. […] Positions of Stat3:DNA complexes in gel are labeled; control lanes (0) represent nuclear extracts pre-treated with 10% DMSO.
Except where indicated, nuclear extracts were pre-incubated with compound for 30 min at room temperature prior to incubation with the radiolabeled probe for 30 min at 30° C. before subjecting to EMSA analysis. Where appropriate, bands corresponding to Stat3:DNA complexes were scanned and quantified for each concentration of compound using ImageJ and plotted as percent of control (DMSO) against concentration of compound, from which the IC50 values were derived.

MCF7 = assay: CyQuant cell viability assay, MCF7; assay type: cell-based, human; conditions: 72 h
Procedure: as §7, §2, §3

Sequence of Stat3 (Homo sapiens (Human), UniProt P40763) (P40763 whole entry): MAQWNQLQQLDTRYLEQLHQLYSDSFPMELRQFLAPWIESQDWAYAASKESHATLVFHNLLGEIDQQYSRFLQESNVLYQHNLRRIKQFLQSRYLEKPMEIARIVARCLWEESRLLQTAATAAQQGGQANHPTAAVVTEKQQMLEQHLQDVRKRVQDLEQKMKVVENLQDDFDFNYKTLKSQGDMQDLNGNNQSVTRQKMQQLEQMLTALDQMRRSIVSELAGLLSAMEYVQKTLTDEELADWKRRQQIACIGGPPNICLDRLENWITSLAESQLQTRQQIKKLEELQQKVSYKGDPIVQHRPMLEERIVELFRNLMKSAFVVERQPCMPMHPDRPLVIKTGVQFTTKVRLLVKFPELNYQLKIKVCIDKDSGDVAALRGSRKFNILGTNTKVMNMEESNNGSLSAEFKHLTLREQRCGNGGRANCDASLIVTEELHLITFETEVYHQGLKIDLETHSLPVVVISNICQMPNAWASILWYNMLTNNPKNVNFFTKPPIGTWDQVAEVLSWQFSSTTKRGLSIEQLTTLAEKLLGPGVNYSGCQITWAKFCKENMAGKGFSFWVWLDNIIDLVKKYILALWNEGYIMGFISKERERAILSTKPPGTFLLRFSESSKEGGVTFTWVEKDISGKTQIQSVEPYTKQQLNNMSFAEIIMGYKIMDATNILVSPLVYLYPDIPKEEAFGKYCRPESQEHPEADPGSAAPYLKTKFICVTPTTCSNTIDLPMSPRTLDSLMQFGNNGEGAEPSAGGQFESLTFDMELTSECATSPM
Sequence of Stat3 (Mus musculus, UniProt P42227) (P42227 2-770 limits assumed): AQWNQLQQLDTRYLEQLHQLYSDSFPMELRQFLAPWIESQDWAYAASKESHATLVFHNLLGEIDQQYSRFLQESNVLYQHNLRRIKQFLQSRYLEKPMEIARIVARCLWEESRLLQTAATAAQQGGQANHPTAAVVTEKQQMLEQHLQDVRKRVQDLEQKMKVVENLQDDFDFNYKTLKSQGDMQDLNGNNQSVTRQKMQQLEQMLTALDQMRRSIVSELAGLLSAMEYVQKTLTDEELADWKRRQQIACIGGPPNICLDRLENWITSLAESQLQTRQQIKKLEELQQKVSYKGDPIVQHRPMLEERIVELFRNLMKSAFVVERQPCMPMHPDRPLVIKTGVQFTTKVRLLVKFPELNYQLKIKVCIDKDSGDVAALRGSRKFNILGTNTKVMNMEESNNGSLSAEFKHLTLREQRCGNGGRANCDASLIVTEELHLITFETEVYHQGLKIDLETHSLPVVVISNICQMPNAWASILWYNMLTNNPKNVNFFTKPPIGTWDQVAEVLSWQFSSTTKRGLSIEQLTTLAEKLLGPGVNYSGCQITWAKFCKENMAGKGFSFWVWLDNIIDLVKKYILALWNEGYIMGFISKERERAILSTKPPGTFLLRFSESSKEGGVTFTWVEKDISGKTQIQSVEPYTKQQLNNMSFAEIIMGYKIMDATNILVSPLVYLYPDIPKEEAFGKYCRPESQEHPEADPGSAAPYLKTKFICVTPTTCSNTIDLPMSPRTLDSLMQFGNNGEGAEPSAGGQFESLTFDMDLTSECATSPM

Stat3 DNA-binding activity in MDA-MB-231 cells (Stat3 [3]; 1 h treatment): little change
Stat3 DNA-binding activity in MDA-MB-231 cells (Stat3 [3]; 3 h treatment): inhibited
effect on Stat1 DNA-binding activity (Stat1): only weakly affected
concentration at which a non-specific effect on Stat1 DNA-binding activity was observed (Stat1; 10 vs 30 μM): 30 µM
Structure (SMILES): C[C@H](C(=O)N(Cc1ccc(C2CCCCC2)cc1)c1ccc(C(=O)O)c(O)c1)N(C)S(=O)(=O)c1c(F)c(F)c(F)c(F)c1F [Example 1, (R)-4-(N-(4-Cyclohexylbenzyl)-2-((2,3,4,5,6-pentafluoro-N-methylphenyl)sulfonamido)propan-amido)-2-hydroxybenzoic acid]
cell viability (1205LU): strongly inhibited the viability
constitutive Stat3 Tyr705 phosphorylation (pY705Stat3 [1]): strongly inhibited
cell viability (C81-61): strongly inhibited the viability
cell viability (MDA-MB-468): suppressed the viability
effect on Stat5 DNA-binding activity (Stat5): also disrupted Stat5 DNA-binding activity; also recorded: concentration-dependent
pY705Stat3 levels (pY705Stat3 [2]; MDA-MB-468, 5 μM, 1 h treatment (inhibition stated only for MDA-MB-231)): only inhibited pY705Stat3 levels in MDA-MB-231
pY705Stat3 levels (pY705Stat3 [4]; MDA-MB-231, 5 μM, 1 h treatment): inhibited pY705Stat3 levels
constitutive Stat3 Tyr705 phosphorylation (pY705Stat3 [5]): strongly inhibited
cell viability (AR7119): relatively weaker activity
cell viability (MDA-MB-231 [6]): suppressed the viability
constitutive Stat3 Tyr705 phosphorylation (pY705Stat3 [7]): strongly inhibited
cell viability (C8161): strongly inhibited the viability
cell viability (MEF/Stat3−/−): only weakly inhibited the viability

Structure (SMILES): Cc1cc(C(=O)O)ccc1N(Cc1ccc(C2CCCCC2)cc1)C(=O)[C@@H](C)N(C)S(=O)(=O)c1c(F)c(F)c(F)c(F)c1F [Example 42, (R)-4-(N-(4-cyclohexylbenzyl)-2-((2,3,4,5,6-pentafluoro-N-methylphenyl)sulfonamido)propanamido)-3-methylbenzoic acid]
effect on pSrc (pSrc): little effect
effect on pERK1/2 (pERK1/2): little effect
effect on pJak2 (pJak2): little effect

effect on Stat5 DNA-binding activity (Stat5): no measureable effect
IC50 (MDA-MB-231 [8]; Homo sapiens, MDA-MB-231, 72 h): 3.9 µM
IC50 (Stat3 [9]): 1.8 ± 0.94 µM
effect on Stat1 DNA-binding activity (Stat1): no measureable effect
Structure (SMILES): C[C@H](C(=O)N(Cc1ccc(C2CCCCC2)cc1)c1ccc(C(=O)O)cc1F)N(C)S(=O)(=O)c1c(F)c(F)c(F)c(F)c1F [Example 37, (R)-4-(N-(4-cyclohexylbenzyl)-2-((2,3,4,5,6-pentafluoro-N-methylphenyl)sulfonamido)propanamido)-3-fluorobenzoic acid]
cell viability (MDA-MB-468): suppressed the viability
IC50 (NIH3T3 mouse fibroblasts): 5.1 µM
constitutive pY705Stat3 levels (pY705Stat3 [2]; MDA-MB-468, treatment for 1 h): strongly inhibited
cell growth, time- or dose-dependent (MDA-MB-231 [8]; printed as MDA-MB-231 and/or MDA-MB-468, trypan blue exclusion, 3 μM Example 37 or 5 μM Example 25, 0-96 h): suppressed
constitutive pY705Stat3 levels (pY705Stat3 [4]; MDA-MB-231, treatment for 1 h): strongly inhibited
cell viability (MDA-MB-231 [6]): suppressed the viability
toxicity to MCF7 cells (MCF7; 10 μM): general toxicity
cell viability (MCF7; MCF7 (no aberrantly-active Stat3), CyQuant): only weakly or not inhibited
